From PubChem BioAssay AID2401 (Southern Research Specialized Biocontainment Screening …, 2010) come the findings set out here.

In this experiment the test system is S. Typhimurium GFP reporter counter-screen, fluorescence, 4 h. Put plainly: nmpC-GFP reporter counter-screen in S. Typhimurium, dose response, counter-screen for PhoP regulon inhibitor project, Salmonella Typhimurium, GFP fluorescence (AID 2401).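 Note: S. typhimurium with Mg-insensitive nmpC-GFP reporter grown at 10 µM Mg2+; drop in reporter fluorescence reflects general culture growth inhibition.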
As to `Oc1c(CN2CCc3ccccc3C2)cc(Cl)c2cccnc12`, the IC50 (as a rule, the midpoint of a concentration-inhibition curve) is 17.4 µM.
In the case of `Cc1ccc(C(=O)N/N=C/c2cc(Br)ccc2O)cn1`, the IC50 is 55.7 µM.
As to `O=C(N/N=C/c1coc2ccc(Cl)cc2c1=O)c1cc(O)cc(O)c1`, the IC50 is 88 µM.
With `CCn1cc(C(=O)NCCN(C)C)c(=O)c2cc(F)c(N3CCN(C)CC3)cc21`, the IC50 is 89.8 µM.
For `Oc1c(CN2CCOCC2)cc(COCc2ccccc2)c2cccnc12`, the IC50 is 69.5 µM.
On to `CC1CCc2c(N3CCC(O)CC3)c(F)cc3c(=O)c(C(=O)O)cn1c23` (configuration not stated), for which the IC50 was 15.3 µM.
In the case of `Cc1ccccc1OCc1n(CC(=O)OC2CC(C)CCC2C(C)C)c2ccccc2[n+]1C` (configuration not stated), the IC50 is 65.6 µM.
As to `CCn1cc(C(=O)O)c(=O)c2cc(F)c(N3CCN(C(=S)NC(=O)c4cccc(F)c4)CC3)cc21`, the IC50 is 69.6 µM.
As to `CCCCCCCCCC[N+](C)(C)CC/C=C1/c2ccccc2Sc2ccc(Cl)cc21`, the IC50 is 18.9 µM.
Turning to `c1cnc2c(c1)ccc1cccnc12`, the IC50 is 24.5 µM.
For the compound `Oc1c(C(c2ccccn2)N2CCOCC2)ccc2cccnc12` (configuration not stated), the IC50 is 88.6 µM.
As to `O=C(N/N=C/c1cc(Cl)ccc1O)c1cccnc1`, the IC50 was 25.6 µM.
Under `O=C(CSc1nc2ccccc2s1)N/N=C/c1cc([N+](=O)[O-])ccc1O` stands 88.4 µM.
Under `O=C(N/N=C/c1ccc([N+](=O)[O-])s1)C(O)c1ccccc1` (configuration not stated) stands 49 µM.
Consider `CNc1cc(Cl)c2nonc2c1[N+](=O)[O-]`, for which the IC50 was 37.7 µM.
Under `COc1cccc(Nc2nc(NCC3CCCO3)c3ccccc3n2)c1` (configuration not stated) stands 87.5 µM; under `CCN(CC)CCOc1ccc2c(c1)C(=NNC(=O)c1ccccn1)c1cc(OCCN(CC)CC)ccc1-2`, 38.1 µM.
Regarding `CCCCCNCC(=O)Nc1cccc(C(=O)Nc2cccc(C(F)(F)F)c2)c1`, the IC50 is 83.2 µM.
Consider `C=C1c2cccc(O)c2C(O)=C2C(=O)[C@]3(O)C(O)=C(C(N)=O)C(=O)[C@@H](N(C)C)[C@@H]3[C@@H](O)[C@H]12`, for which the IC50 was 0.67 µM.
Take `Oc1c(C(Nc2nc3ccccc3s2)c2ccco2)ccc2cccnc12` (configuration not stated): the IC50 is 104 µM.
`C=CCc1cccc(C2Nc3ccccc3C(=O)N2O)c1O` (configuration not stated): the IC50 is 80.9 µM.
In the case of `NCC12CC3CC(C1)CC(c1ccc(Br)cc1)(C3)C2`, the IC50 is 40.3 µM.
As to `CC(=O)NC(c1ccc(Cl)cc1Cl)c1ccc2cccnc2c1O` (configuration not stated), the IC50 is 48.8 µM.
On to `CCCCC(CC)CN=C(N)NC(N)=NCCCCCCN=C(N)NC(N)=NCC(CC)CCCC` (configuration not stated), for which the IC50 is 5.51 µM.
As for `COc1ccc(C(C[N+](=O)[O-])C2(c3ccc(OC)c(OC)c3)C(=O)c3ccccc3C2=O)cc1` (configuration not stated), the IC50 is 23.2 µM.
`CO[C@H]1C=CO[C@@]2(C)Oc3c(C)c(O)c4c(O)c(c(C=NN5CCN(C)CC5)c(O)c4c3C2=O)NC(=O)C(C)=CC=C[C@H](C)[C@H](O)[C@@H](C)[C@@H](O)[C@@H](C)[C@H](OC(C)=O)[C@@H]1C`: the IC50 was 3.44 µM.
Under `O=C(N/N=C/c1ccc(Sc2ccccn2)o1)c1cc2ccccc2cc1O` stands 107 µM.
Regarding `Cc1[nH]n(-c2ccccc2)c(=O)c1/C=N/Nc1nncc(-c2ccccc2)n1`, the IC50 was 19.1 µM.
As for `O=C(Cc1c[nH]c2ccccc12)N/N=C/c1ccccc1O`, the IC50 was 89.3 µM.
For `Cc1cc(C)c2ccc(N)nc2c1O`, the IC50 was 35.7 µM.
Turning to `N=c1n(CC(=O)c2ccc(Br)s2)c2ccccc2n1Cc1ccccc1`, the IC50 is 40.4 µM.
Under `CCc1ccc(NC(=O)C[n+]2cc(-c3ccc(C)cc3)n3c2CCC3)cc1` stands 85.9 µM; under `CCCCCCCCn1c2c(c(=N)c3c1CCC3)CCCC2`, 70.9 µM; under `COc1ccc(OCc2n(CC(=O)OC3CC(C)CCC3C(C)C)c3ccccc3[n+]2C)cc1` (configuration not stated), 39.6 µM.
With `COc1ccc(OCC(O)CNc2ccc(Br)cc2)cc1` (configuration not stated), the IC50 was 14.3 µM.
With `CCCC(=O)NC(c1ccc(C)cc1)c1ccc2cccnc2c1O` (configuration not stated), the IC50 was 100 µM.
Turning to `O=C(c1ccccc1)c1c2c(cc3sc4ccccc4[n+]13)-c1cccc3cccc-2c13`, the half-maximal inhibitory concentration (IC50) is 82.2 µM.
`Cc1ccc(S(=O)(=O)/N=C2/C=C(Sc3ncn[nH]3)C(=O)c3ccccc32)cc1`: the IC50 is 32.6 µM.
On to `CCn1cc(C(=O)O)c(=O)c2cc(F)c(N3CCN(C(=O)Nc4ccccc4)CC3)cc21`, for which the IC50 is 75.2 µM.
Consider `CN1CCN(C(c2ccc(Cl)cc2)c2cc(Cl)c3cccnc3c2O)CC1` (configuration not stated), for which the IC50 is 33.5 µM.
As for `O=C(O)C1Nc2c(O)cccc2C2C=CCC12` (configuration not stated), the half-inhibitory concentration (IC50) is 86.9 µM.
Under `COc1ccc(Nc2cc(C)nc(NCc3ccccc3)n2)cc1` stands 111 µM; under `C[C@H]1COc2c(N3CCN(C)CC3)c(F)cc3c(=O)c(C(=O)O)cn1c23`, 0.37 µM; under `CCCCCCCCCCCCCCCC[n+]1cccc2ccccc21`, 19.1 µM.
In the case of `CCn1cc(C(=O)O)c(=O)c2cc(F)c(N3CCN(C(=S)Nc4ccccc4OC)CC3)cc21`, the IC50 was 38.8 µM.
For the compound `CN1CCN(C(c2ccc(Br)cc2)c2cc(Cl)c3cccnc3c2O)CC1` (configuration not stated), the IC50 was 19.8 µM.
Consider `CCOc1cc(/C=N/N=C(N)N)ccc1OCc1ccc(Cl)cc1`, for which the IC50 is 52.4 µM.
For the compound `O=[N+]([O-])c1ccc(N/N=C/c2ccc[nH]2)cc1`, the IC50 is 62 µM.
With `CCCC(=O)NC(c1ccc(N(C)C)cc1)c1ccc2cccnc2c1O` (configuration not stated), the IC50 was 107 µM.
As to `CCCCCCCCNc1ncnc2ccccc12`, the IC50 is 150 µM.
Under `CCn1nc(C(=O)O)c(=O)c2cc3c(cc21)OCO3` stands 49 µM; under `Cc1ccnc(NC(c2cccnc2)c2ccc3cccnc3c2O)c1` (configuration not stated), 22.3 µM; under `O=CN/N=C/c1c(O)ccc2ccccc12`, 37.2 µM.
For the compound `CC[C@H]1OC(=O)C[C@@H](O)[C@H](C)[C@@H](O[C@@H]2O[C@H](C)C[C@H](N(C)C)[C@H]2O)[C@@H](CC=O)C[C@@H](C)C(=O)C=C[C@]2(C)O[C@H]2[C@@H]1C`, the IC50 is 14.2 µM.
Under `O=C(N[C@H](CO)[C@H](O)c1ccc([N+](=O)[O-])cc1)C(Cl)Cl` stands 9.59 µM; under `CCn1cc(C(=O)NCC(C)C)c(=O)c2cc(F)c(N3CCN(C)CC3)cc21`, 67.8 µM; under `Nc1ccc2nc(-c3cc(Cl)c(N)c(Cl)c3)[nH]c2c1`, 80.7 µM.
Under `O=[N+]([O-])/C=C/c1cc2ccccc2[nH]1` stands 138 µM; under `O=C(O)CSc1cc(NS(=O)(=O)c2cccc([N+](=O)[O-])c2)c2ccccc2c1O`, 83.5 µM; under `Cc1cc(/C=N/n2c(COc3ccccc3C)nc3ccccc3c2=O)c(O)c([N+](=O)[O-])c1`, 70.4 µM.
As to `CC1COc2c(N3CCN(C)CC3)c(F)cc3c(=O)c(C(=O)O)cn1c23` (configuration not stated), the IC50 is 0.8 µM.
On to `COc1c(F)c(F)cc2c(=O)c(C(=O)O)cn(C3CC3)c12`, for which the IC50 is 85.6 µM.
Consider `Oc1ccc(CNc2ccccc2F)c2cccnc12`, for which the IC50 is 45.7 µM.
`CCCCCCCCCn1c2c(c(=N)c3c1CCC3)CCCC2`: the IC50 is 31.3 µM.
As to `O=C(Nc1nnc(-c2cccs2)o1)c1cccc(Oc2ccccc2)c1`, the IC50 was 40.8 µM.
`COC(=O)c1c(NC(=O)c2ccc([N+](=O)[O-])o2)sc2c1CCN(C(C)C)C2`: the IC50 is 69.3 µM.
Regarding `CCC(C)N1CCC2(CC1)N=c1c(c3c4c5c(C)c(O)c3c(O)c1=NC(=O)C(C)=CC=C[C@H](C)[C@H](O)[C@@H](C)[C@@H](O)[C@@H](C)[C@H](OC(C)=O)[C@H](C)[C@@H](OC)C=CO[C@@](C)(O5)C4=O)N2` (some centres not stated), the IC50 is 2.28 µM.
